According to patent publication US20080262228A1, “Metabolites of 5-fluoro-8- quinoline and methods of preparation and uses thereof” (Wyeth, priority 2006, published 2008):

Legend:
[1] = Metabolite profiling in liver microsomes and S9; assay type: in vitro ADME, rat, dog, monkey, human; conditions: liver microsomes and S9, 10 μM COMPOUND I, 30 min; species letters not defined
Protocol: Microsomal incubations for metabolite profiling were similar to those described above for intrinsic clearance determination (see Table 1). Aliquots of COMPOUND I (10 μL), dissolved in DMSO:methanol (1:9), were added to a 96-well plate containing phosphate buffer, and MgCl2 and the liver microsomes at 37° C. using the same automation apparatus as for the stability study described hereinabove. The reactions were initiated by the addition of the UDPGA and NADPH generating system. The final incubation volume for all samples was 1 mL and the length of incubation was 30 min. […] Three 250 μL aliquots were transferred to a 96-well plate containing 900 μL acetonitrile to precipitate the protein. […] The samples were then reconstituted in 150 μL of 20% methanol in water. The three aliquots for each sample were pooled and analyzed by LC/MS.
S9 incubation buffer and cofactors were chosen to allow N-acetylation and carbamoyl glucuronidation in addition to oxidative and glucuronidation pathways possible in liver microsomes. Incubations of sulfamethazine and SCA-136 with liver S9 were used as positive controls for N-acetylation and carbamoyl glucuronidation, respectively. Following a 30 min. incubation, 750 μL from each sample were added to 900 μL acetonitrile. Following centrifugation and evaporation of the supernatant, the samples were reconstituted in 450 μL of 20% methanol in water for analysis by HPLC/UV and LC/MS (see below).
The HPLC system used for mass spectrometric analysis was an Agilent 1100 HPLC (Agilent Technologies, Palo Alto, Calif.) equipped with a binary pump and a diode array UV detector. The UV detector was set to monitor 190-400 nm. Separations were accomplished on a Luna C18 column (150×2.1 mm, 5 μm) (Phenomenex Incorporated, Torrance, Calif.).
The mass spectrometer used for metabolite characterization was a Finnigan LCQ Deca ion trap mass spectrometer (Thermo Electron Corp.). […] Full scan and data dependent MS2 and MS3 mass spectra were recorded. Finnigan Xcalibur software (version 1.3) was used for control of equipment and recording of data from UV and LC/MS analyses.
Chromatographic profiles of COMPOUND I (10 μM) metabolites in incubations with liver microsomes in the presence of NADPH are presented in FIG. 1. Chromatographic profiles of COMPOUND I (10 μM) metabolites in incubations with liver microsomes in the presence of NADPH and UDPGA are presented in FIG. 2. Chromatographic profiles of COMPOUND I (10 μM) metabolites in incubations with liver S9 in the presence of NADPH, UDPGA and acetyl coenzyme A (CoA) are presented in FIG. 3. In incubations containing NADPH, UDPGA and acetyl CoA, fourteen Phase I metabolites (M1, M6, M8, M12, M13, M14, M15, M16, M17, M18, M20, M21, M22 and M23) and six Phase II metabolites (M2, M3, M5, M7, M9 and M10) were observed. In incubations without cofactors, no metabolites were observed.
LC/MS analysis was conducted on extracts of mouse, rat, monkey and human liver microsomes and S9. The mass spectral data for the characterized COMPOUND I metabolites are discussed below.

[2] = In vivo metabolism of [14C]COMPOUND I in Sprague-Dawley rats, single oral 5 mg/kg dose; parameters: species or system rat; conditions: for Chromatographic Distribution of Radioactivity in Pooled Plasma Samples: 5 mg/kg oral [14C]COMPOUND I
Protocol: Dose preparation, animal dosing, and specimen collection were performed at Wyeth Research, Collegeville, Pa. The vehicle contained 2% (w/v) polysorbate 80, NF and 0.5% (w/v) methylcellulose (4000 cps) in water. [^14C]COMPOUND I trisuccinate salt (36.6 mg) and non-labeled COMPOUND I trisuccinate salt (26.7 mg) were dissolved in 1 mL of ethanol and suspended in 35 mL of the vehicle with stirring. The target [^14C]COMPOUND I concentration was approximately 1 mg/mL as free base and 70 μCi/mL with a target specific activity of 70 μCi/mg. Three pre- and post-dose aliquots (100 μL) were taken for the determination of radiochemical purity, drug and radioactivity concentrations and specific activity (see below).
Male rats weighing from 323 to 354 g and female rats weighing from 270 to 317 g at the time of dosing were purchased from Charles River Laboratories (Wilmington, Mass.). Non-fasted rats were given a single 5 mg/kg (˜350 μCi/kg) dose of [^14C]COMPOUND I at a volume of 5.0 mL/kg via intragastric gavage. Three rats were dosed for each time point. Animals were provided Purina rat chow and water ad libitum, and were kept individually in metabolism cages.
Blood samples were collected at 1, 3, 6 and 24 hr from male rats and at 1 and 3 hr from female rats after dose administration by cardiac puncture into tubes containing EDTA as the anticoagulant and placing them on ice. Triplicate aliquots (50 μL) of whole blood were removed and plasma was immediately obtained from the remaining blood by centrifugation at 4° C. Whole brain samples were collected after saline perfusion at 1, 3, 6 and 24 hr post-dose from male rats and at 1 and 3 hr post-dose from female rats. Urine samples were collected on dry ice from male rats at intervals of 0-6 and 6-24 hr post-dose. Feces were collected from male rats at 0-24 hr post-dose at room temperature. The biological specimens and aliquots of the dose suspension were stored at approximately −70° C. until analysis.
Triplicate aliquots of diluted dose (20 μL), dose fractions (10 μL), and plasma (50 μL) and urine (100 μL) from individual rats were analyzed for radioactivity concentrations. Radioactivity determinations were made with a Tri-Carb Model 3100 TR liquid scintillation counter (LSC) (Perkin Elmer) using 5 mL of Ultima Gold as the scintillation fluid.
Brain and fecal samples from individual rats were weighed and homogenized in water at a volume-to-weight ratio of about 3:1 and 5:1, respectively, with a Polytron PT homogenizer at ice-cold temperature. Duplicate aliquots of blood (50 μL), brain homogenates (0.2 g) and fecal homogenates (0.2 g) were placed on Combusto-cones with Combusto-pads and allowed to dry overnight. Samples were combusted with a model 307 Tri-Carb Sample Oxidizer, equipped with an Oximate-80 Robotic Automatic Sampler (Perkin Elmer). The liberated ^14CO2 was trapped with Carbo-Sorb E carbon dioxide absorber, mixed with PermaFluor® E^+ liquid scintillation cocktail, and counted in a Tri-Carb Model 3100 TR/LL liquid scintillation counter (Perkin Elmer).
Plasma samples were pooled by equal volumes from three animals at each time point (1, 3, 6 and 24 hr for males; 1 and 3 hr for females). Aliquots of 2 mL of pooled plasma were mixed with 2 mL of acetonitrile, placed on ice for about 10 min, and then centrifuged at 4° C. The supernatant was transferred to a clean tube. The protein pellets were extracted two more times with 4 mL of acetonitrile. The supernatants from precipitation and extraction of each sample were pooled, mixed, and evaporated at 22° C. under nitrogen in a TurboVap LV evaporator (Caliper Life Sciences, Hopkinton, Mass.) to about 1.0 mL. The concentrated extract was centrifuged, the supernatant volume measured and the extraction efficiency was determined by analyzing duplicate 10 μL aliquots for radioactivity concentrations.

[3] = Metabolite characterization in cryopreserved hepatocytes; conditions: hepatocyte incubations, 20 μM; R, rat; D, dog; H, human; Media = decomposition product observed in media control
Protocol: Pooled male rat, dog, and mixed male and female human cryopreserved hepatocytes were used in this study. The cryopreserved hepatocytes (two vials from each species; three to five million viable cells per vial) were thawed in a 37° C. water bath with gentle shaking until the ice was almost melted. The suspensions from the two individual vials of the same species were immediately transferred to a 50 mL centrifuge tube containing pre-warmed thawing media at 37° C. with gentle handshaking to prevent the cells from settling. The cell suspension was centrifuged at 50 g for 5 min at 4° C. Supernatants were discarded and the pellets were resuspended in pre-warmed incubation media (8 mL) at 37° C. […] [^14C]COMPOUND I (20 μM) was incubated in a 12-well plate containing hepatocyte suspensions at 1.0 mL per well in duplicate (≧1 million viable cells/well) at 37° C. for 1 or 4 hr in the presence of 5% CO2:95% O2. Control incubations without hepatocytes were also run under the same conditions. Positive controls containing [^14C]7-ethoxycoumarin (100 μM) were also incubated under the same conditions, but only for 1 hr. At the end of the incubations, reactions were stopped by adding acetonitrile with 2% acetic acid (1 mL), mixed for 10 min, followed by centrifugation at 4000 rpm for 10 min at 4° C. Aliquots (50 μL) of supernatants were analyzed by HPLC with UV and radioactivity flow detection for metabolite profiling, and by LC/MS for metabolite identification as described in below. To determine extraction recovery, aliquots (20 μL) of supernatants were analyzed for radioactivity content utilizing a Packard Tri-Carb Model 3100 TR liquid scintillation counter and 5 mL of Ultima Gold.
The HPLC system used for mass spectrometric analysis was a Waters Alliance model 2695 HPLC system (Waters Corp). It was equipped with a built-in autosampler and a model 996 diode array UV detector. The UV detector was set to monitor 210-400 nm. The HPLC conditions were the same as those described hereinabove with the following exceptions. […]

Species (in which the metabolite was characterized) [1] | Chromatographic Distribution of Radioactivity in Pooled Plasma Samples ([2]; female rats, 1 hr) [%] | Chromatographic Distribution of Radioactivity in Pooled Plasma Samples ([2]; female rats, 3 hr) [%] | percent of total plasma radioactivity ([2]; male and female rats, range over time points, 5 mg/kg oral) | Chromatographic Distribution of Radioactivity in Pooled Plasma Samples ([2]; male rats, 1 hr) [%] | Chromatographic Distribution of Radioactivity in Pooled Plasma Samples ([2]; male rats, 3 hr) [%] | Chromatographic Distribution of Radioactivity in Pooled Plasma Samples ([2]; male rats, 6 hr) [%] | Source [3] | Compound
R, D, M, H | 9.6 | 16.2 | 9.6-17.1% | 15.2 | 17.1 | 16.5 |  | COc1cc(N2CCN(C3CCN(c4ccc(OC5OC(C(=O)O)C(O)C(O)C5O)c5cccnc45)CC3)CC2)c2ncccc2c1 (stereo not drawn) [Metabolite M5, Hydroxy desfluoro COMPOUND I glucuonide]
R, D, M, H |  |  |  |  |  |  | D (trace), H | COc1cc(N2CCN(C3CCN(c4ccc(O)c5cccnc45)CC3)CC2)c2ncccc2c1 [Metabolite M18, Hydroxy desfluoro COMPOUND I]
